Laboratory results reported in ChEMBL document CHEMBL4406869, “Benzo[b]thiophene-thiazoles as potent anti-Toxoplasma gondii agents: Design, synthesis, tyrosinase/tyrosine hydroxylase inhibitors, molecular docking study, and antioxidant activity” (Eur J Med Chem, 2019).
Blank lines part the entries; values can stand above or below the compound they belong to.

Key:
L929 = test: Cytotoxicity against mouse L929 cells assessed as reduction in cell viability after 24 hrs by MTT assay; type: cell-based; settings: l929, 24 h
Toxoplasma gondii [1] = test: (§1) Antiparasitic activity against Toxoplasma gondii RH tachyzoites infected in human Hs27 cells assessed as inhibition of parasitic growth preincubated for 24 hrs followed by [5,6-3H]uracil addition and measured after 72 hrs by liquid scintillation counting analysis; type: functional, organism-based
[2] = Selectivity ratio of CC30 for cytotoxicity against mouse L929 cells to IC50 for antiparasitic activity against Toxoplasma gondii RH infected in human Hs27 cells; type: toxicity, cell-based
Toxoplasma gondii [3] = test: (§2) Antiparasitic activity against Toxoplasma gondii ME49 tachyzoites infected in human Hs27 cells assessed as inhibition of parasitic growth preincubated for 24 hrs followed by [5,6-3H]uracil addition and measured after 72 hrs by liquid scintillation counting analysis; type: functional, organism-based
[4] = Selectivity ratio of CC30 for cytotoxicity against mouse L929 cells to IC50 for antiparasitic activity against Toxoplasma gondii Me49 infected in human Hs27 cells; type: toxicity, cell-based
Tyrosinase = target: T1, Tyrosinase (Agaricus bisporus, UniProt O42713); test: Inhibition of mushroom tyrosinase using L-dopa as substrate by spectrophotometric method
T1 sequence (O42713 whole entry): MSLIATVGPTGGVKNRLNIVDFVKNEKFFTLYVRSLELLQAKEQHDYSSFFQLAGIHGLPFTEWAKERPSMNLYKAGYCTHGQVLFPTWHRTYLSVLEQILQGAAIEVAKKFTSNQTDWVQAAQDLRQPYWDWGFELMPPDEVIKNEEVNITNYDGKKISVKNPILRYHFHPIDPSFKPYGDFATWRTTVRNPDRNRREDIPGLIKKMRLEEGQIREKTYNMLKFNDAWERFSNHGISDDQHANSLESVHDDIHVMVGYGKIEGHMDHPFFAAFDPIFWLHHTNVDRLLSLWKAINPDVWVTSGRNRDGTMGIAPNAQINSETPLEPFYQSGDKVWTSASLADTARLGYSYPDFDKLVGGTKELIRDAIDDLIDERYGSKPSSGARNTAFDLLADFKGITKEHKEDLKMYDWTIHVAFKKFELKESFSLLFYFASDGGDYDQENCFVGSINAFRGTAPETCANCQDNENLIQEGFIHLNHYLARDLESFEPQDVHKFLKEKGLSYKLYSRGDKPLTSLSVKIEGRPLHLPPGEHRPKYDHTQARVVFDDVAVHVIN

[5] = Cytotoxicity against mouse L929 cells assessed as cell viability at 100 ug/ml after 24 hrs by MTT assay relative to control; type: cell-based; settings: read-out: Activity
[6] = Cytotoxicity against mouse L929 cells assessed as cell viability at 400 ug/ml after 24 hrs by MTT assay relative to control; type: cell-based; settings: read-out: Activity
[7] = Cytotoxicity against mouse L929 cells assessed as cell viability at 200 ug/ml after 24 hrs by MTT assay relative to control; type: cell-based; settings: read-out: Activity
[8] = Cytotoxicity against mouse L929 cells assessed as cell viability at 50 ug/ml after 24 hrs by MTT assay relative to control; type: cell-based; settings: read-out: Activity
[9] = Cytotoxicity against mouse L929 cells assessed as cell viability at 25 ug/ml after 24 hrs by MTT assay relative to control; type: cell-based; settings: read-out: Activity
[10] = Cytotoxicity against mouse L929 cells assessed as cell viability at 12.5 ug/ml after 24 hrs by MTT assay relative to control; type: cell-based; settings: read-out: Activity
[11] = Cytotoxicity against mouse L929 cells assessed as cell viability at 6.25 ug/ml after 24 hrs by MTT assay relative to control; type: cell-based; settings: read-out: Activity
[12] = Cytotoxicity against mouse L929 cells assessed as cell viability at 3.125 ug/ml after 24 hrs by MTT assay relative to control; type: cell-based; settings: read-out: Activity
[13] = Cytotoxicity against mouse L929 cells assessed as cell viability at 1.56 ug/ml after 24 hrs by MTT assay relative to control; type: cell-based; settings: read-out: Activity
[14] = Cytotoxicity against mouse L929 cells assessed as cell viability at 0.78 ug/ml after 24 hrs by MTT assay relative to control; type: cell-based; settings: read-out: Activity
Toxoplasma gondii [15] = test: as §1, with “reduction in parasite proliferation at 100 ug/mL” for “inhibition of parasitic growth”, “analysis relative to control” for “analysis”; type: functional; design: scale not given: the % may be the effect or the level left
Toxoplasma gondii [16] = test: as §2, with “reduction in parasite proliferation at 100 ug/mL” for “inhibition of parasitic growth”, “analysis relative to control” for “analysis”; type: functional; design: scale not given: the % may be the effect or the level left
Toxoplasma gondii [17] = test: (§3) Antiparasitic activity against Toxoplasma gondii RH tachyzoites infected in human Hs27 cells assessed as reduction in parasite proliferation at 50 ug/mL preincubated for 24 hrs followed by [5,6-3H]uracil addition and measured after 72 hrs by liquid scintillation counting analysis relative to control; type: functional; design: scale not given: the % may be the effect or the level left
Toxoplasma gondii [18] = test: as §3, with “ME49” for “RH”; type: functional; design: scale not given: the % may be the effect or the level left
Toxoplasma gondii [19] = test: (§4) Antiparasitic activity against Toxoplasma gondii RH tachyzoites infected in human Hs27 cells assessed as reduction in parasite proliferation at 25 ug/mL preincubated for 24 hrs followed by [5,6-3H]uracil addition and measured after 72 hrs by liquid scintillation counting analysis relative to control; type: functional; design: scale not given: the % may be the effect or the level left
Toxoplasma gondii [20] = test: as §4, with “ME49” for “RH”; type: functional; design: scale not given: the % may be the effect or the level left
Toxoplasma gondii [21] = test: as §3, with “12.5” for “50”; type: functional; design: scale not given: the % may be the effect or the level left
Toxoplasma gondii [22] = test: as §3, with “ME49” for “RH”, “12.5” for “50”; type: functional; design: scale not given: the % may be the effect or the level left
Toxoplasma gondii [23] = test: as §3, with “6.25” for “50”; type: functional; design: scale not given: the % may be the effect or the level left
Toxoplasma gondii [24] = test: as §3, with “ME49” for “RH”, “6.25” for “50”; type: functional; design: scale not given: the % may be the effect or the level left
Toxoplasma gondii [25] = test: as §3, with “3.125” for “50”; type: functional; design: scale not given: the % may be the effect or the level left
Toxoplasma gondii [26] = test: as §3, with “ME49” for “RH”, “3.125” for “50”; type: functional; design: scale not given: the % may be the effect or the level left
Toxoplasma gondii [27] = test: as §3, with “1.56” for “50”; type: functional; design: scale not given: the % may be the effect or the level left
Toxoplasma gondii [28] = test: as §3, with “ME49” for “RH”, “1.56” for “50”; type: functional; design: scale not given: the % may be the effect or the level left
Toxoplasma gondii [29] = test: as §3, with “0.78” for “50”; type: functional; design: scale not given: the % may be the effect or the level left
Toxoplasma gondii [30] = test: as §3, with “ME49” for “RH”, “0.78” for “50”; type: functional; design: scale not given: the % may be the effect or the level left
Toxoplasma gondii [31] = test: as §3, with “0.39” for “50”; type: functional; design: scale not given: the % may be the effect or the level left
[32] = Antioxidant activity assessed as DPPH radical scavenging activity incubated for 30 mins under dark condition by Uv-vis spectrophotometric method; type: functional
[33] = Potency index, ratio of butylated hydroxytoluene IC50 to test compound IC50 for antioxidant activity assessed as DPPH radical scavenging activity; type: functional

IC50 (Tyrosinase): 329 µM
IC50 [32]: 15.5 µM
Compound: C(=N\Nc1nc(C23CC4CC(CC(C4)C2)C3)cs1)/c1cc2ccccc2s1
viability at 24 h, 100 ug/ml [5]: 89%
viability at 24 h, 400 ug/ml [6]: 76.8%
CC30 (L929): 1333.46 µM
IC50 (Toxoplasma gondii [1]): 51.9 µM
viability at 24 h, 200 ug/ml [7]: 81.8%
viability at 24 h, 50 ug/ml [8]: 90.7%
viability at 24 h, 25 ug/ml [9]: 98.3%
viability at 24 h, 12.5 ug/ml [10]: 96.5%
viability at 24 h, 6.25 ug/ml [11]: 101%
viability at 24 h, 3.125 ug/ml [12]: 104%
viability at 24 h, 1.56 ug/ml [13]: 105%
viability at 24 h, 0.78 ug/ml [14]: 107%
Activity (Toxoplasma gondii [15]): 6.32%
Activity (Toxoplasma gondii [16]): 0.53%
Activity (Toxoplasma gondii [17]): 28.7%
Activity (Toxoplasma gondii [18]): 1.17%
Activity (Toxoplasma gondii [19]): 46.12%
Activity (Toxoplasma gondii [20]): 5.61%
Activity (Toxoplasma gondii [21]): 58.29%
Activity (Toxoplasma gondii [22]): 7.85%
Activity (Toxoplasma gondii [23]): 83.32%
Activity (Toxoplasma gondii [24]): 9.6%
Activity (Toxoplasma gondii [25]): 90.86%
Activity (Toxoplasma gondii [26]): 25.5%
Activity (Toxoplasma gondii [27]): 101.85%
Activity (Toxoplasma gondii [28]): 49.76%
Activity (Toxoplasma gondii [29]): 92.05%
Activity (Toxoplasma gondii [30]): 101.96%
Activity (Toxoplasma gondii [31]): 1.24%
selectivity ratio [2]: 25.7
IC50 (Toxoplasma gondii [3]): 8.74 µM
selectivity ratio [4]: 153

IC50 (Tyrosinase): 466 µM
Compound: Cc1ccc(-c2csc(N/N=C/c3cc4ccccc4s3)n2)cc1
CC30 (L929): 884.28 µM

IC50 (Tyrosinase): 390 µM
Compound: Clc1ccc(-c2csc(N/N=C/c3cc4ccccc4s3)n2)cc1
CC30 (L929): 1255.05 µM

IC50 (Tyrosinase): 431 µM
Compound: Ic1ccc(-c2csc(N/N=C/c3cc4ccccc4s3)n2)cc1
CC30 (L929): 946.2 µM

IC50 [32]: 15.9 µM
Compound: O=c1oc2ccccc2cc1-c1csc(N/N=C/c2cc3ccccc3s2)n1
Ratio IC50 [33]: 10

Continued, compound first:

Compound: COc1cc(Cc2cnc(N)nc2N)cc(OC)c1OC [TRIMETHOPRIM]
CC30 (L929): 55.11 µM
IC50 (Toxoplasma gondii [1]): 41.8 µM
selectivity ratio [2]: 1.32
IC50 (Toxoplasma gondii [3]): 39.2 µM
selectivity ratio [4]: 1.4

Compound: Fc1ccc(-c2csc(N/N=C/c3cc4ccccc4s3)n2)cc1
CC30 (L929): 1385.75 µM
IC50 (Tyrosinase): 396 µM

Compound: Brc1ccc(-c2csc(N/N=C/c3cc4ccccc4s3)n2)cc1
CC30 (L929): 283.56 µM
IC50 (Tyrosinase): 433 µM

Compound: Nc1ccc(S(=O)(=O)Nc2ncccn2)cc1 [SULFADIAZINE]
CC30 (L929): >= 5000 uM
selectivity ratio [2]: 0.46
IC50 (Toxoplasma gondii [3]): 13000 µM
selectivity ratio [4]: 0.39

Compound: Cc1cc(C(C)(C)C)c(O)c(C(C)(C)C)c1 [BUTYLATED HYDROXYTOLUENE]
IC50 [32]: 180 µM
